Measurements reported in patent US20250114367A1, “METHOD OF TREATING HAIR LOSS DISORDERS” (Sun Pharmaceutical Industries, Inc., priority 2023, published 2025).

Tested on: adult subjects with moderate to severe AA
Test: Phase III trial: Hair Satisfaction Patient Reported Outcome (SPRO)
Format: in vivo, human
Parameters: key to SPRO responders, treatment difference: Common Risk Difference (Mantel-Haenszel): difference in proportion of responders (satisfied or very satisfied)
Conditions: for SPRO Responders: No / SPRO Responders: Yes ('Very satisfied' or 'Satisfied') / SPRO Responses: 1 = Very Satisfied / SPRO Responses: 2 = Satisfied / SPRO Responses: 3 = Neither Satisfied Nor Dissatisfied / SPRO Responses: 4 = Dissatisfied / SPRO Responses: 5 = Very Dissatisfied / percentage of subjects with a ≥2 point change from baseline in SPRO / proportion of SPRO responders (very satisfied or satisfied) / percentage of SPRO responders: non-missing data; for SPRO responders, treatment difference: Common Risk Difference (Mantel-Haenszel): MI with MAR assumption
Excerpt: The SPRO is a single-item questionnaire answered by the subject and designed to measure how satisfied Alopecia Areata subjects are with their hair at the time of the assessment. Subjects answer questions on a scale of 1 to 5, representing “Very satisfied” to “Very dissatisfied.” Satisfaction categories 1-5 of the scale were defined as follows: 1=“Very Satisfied”; 2=“Satisfied”; 3=“Neither Satisfied nor Dissatisfied”; 4=Dissatisfied”; and 5=“Very Dissatisfied”.
The results of the SPRO was analyzed in three different ways: 1) the percentage of responders, 2) the change from baseline, and 3) the percentage of subjects achieving a ≥2.0 point change from baseline.
A Phase III trial was conducted to assess the efficacy and safety of CTP-543 in adult subjects with moderate to severe AA. Approximately 440 adult male and female subjects 18 to 65 years of age, inclusive, with moderate to severe AA participated in the study. Subjects with definitive diagnosis of AA, and at least 50% hair loss, as defined by a SALT score ≥50, who met all of the inclusion criteria and none of the exclusion criteria participated in the study.
The Screening Period lasted up to 28 days prior to initiation of study drug. […] Randomization was stratified by scalp hair loss into 1 of the following 2 categories: 1) partial scalp hair loss (SALT ≥50 and <95), 2) complete or near complete scalp hair loss (SALT ≥95).
The key secondary efficacy endpoints were the percentage of responders (defined as “satisfied” or “very satisfied”) on the Hair Satisfaction Patient Reported Outcome (SPRO) scale at Week 24, 20, 16, 12, and 8.
Additional secondary efficacy endpoints included the following: • Relative change in SALT scores from baseline at Weeks 4, 8, 12, 16, 20, and 24. • Percentage of responders (defined as “much improved” or “very much improved”) using the Clinical Global Impression of Improvement (CGI-I) at Weeks 12, 16, 20, and 24. • Percentage of responders (defined as “much improved” or “very much improved”) using the Patient Global Impression of Improvement (PGI-I) at Weeks 12, 16, 20, and 24. • Change from baseline in the Clinical Global Impression of Severity (CGI-S) at Weeks 12, 16, 20, and 24. • Change from baseline in the Patient Global Impression of Severity (PGI-S) at Weeks 12, 16, 20, and 24. • Change from baseline on the Brigham Eyebrow Tool for Alopecia (BETA) score at Weeks 12 and 24. • Change from baseline on the Brigham Eyelash Tool for Alopecia (BELA) score at Weeks 12 and 24. • Percentage of subjects achieving at least a 75% relative reduction in SALT score from baseline at Weeks 12 and 24. • Percentage of subjects achieving at least a 90% relative reduction in SALT score from baseline at Weeks 12 and 24. • Percentage of responders (defined as “satisfied” or “very satisfied”) on the SPRO scale at Weeks 12, 16, and 20. • Change from baseline in the SPRO scale at Weeks 12, 16, 20, and 24. • Percentage of subjects achieving a ≥2-point change from baseline in the SPRO scale at Weeks 12, 16, 20, and 24. • Change from baseline on the individual items of the Hair Quality Patient Reported Outcome (QPRO) scale at Weeks 12, 16, 20, and 24. • Change from baseline in the depression scale of the Hospital Anxiety and Depression Scale (HADS) at Week 24. • Change from baseline in the anxiety scale of the HADS at Week 24. • Percentage of subjects achieving an absolute SALT score of ≤20 at Week 4. • Percentage of subjects achieving an absolute SALT score of ≤10 at Week 24 […]

Compound: [2H]C1([2H])C([C@@H](CC#N)n2cc(-c3ncnc4[nH]ccc34)cn2)C([2H])([2H])C([2H])([2H])C1([2H])[2H] [CTP-543, (R)-3-(4-(7H-pyrrolo[2,3-d]pyrimidin-4-yl)-1H-pyrazol-1-yl)-3-(cyclopentyl-2,2,3,3,4,4,5,5-d8) propanenitrile]
- SPRO score, LS mean change from baseline (Week 12, 8 mg BID): −1.6
- SPRO score, LS mean change from baseline (Week 12, 12 mg BID): −1.7
- SPRO score, LS mean change from baseline (Week 16, 8 mg BID): −1.6
- SPRO score, LS mean change from baseline (Week 16, 12 mg BID): −1.7
- SPRO score, LS mean change from baseline (Week 20, 8 mg BID): −1.5
- SPRO score, LS mean change from baseline (Week 20, 12 mg BID): −1.8
- SPRO score, LS mean change from baseline (Week 24, 8 mg BID): −1.6
- SPRO Responders: No (Week 24, 8 mg BID (N = 249)): 122 (53.5) n (%)
- SPRO Responders: Yes ('Very satisfied' or 'Satisfied') (Week 24, 8 mg BID (N = 249)): 106 (46.5) n (%)
- SPRO Responses: 1 = Very Satisfied (Week 24, 8 mg BID (N = 249)): 40 (17.5) n (%)
- SPRO Responses: 2 = Satisfied (Week 24, 8 mg BID (N = 249)): 66 (38.9) n (%)
- SPRO Responses: 3 = Neither Satisfied Nor Dissatisfied (Week 24, 8 mg BID (N = 249)): 34 (14.9) n (%)
- SPRO Responses: 4 = Dissatisfied (Week 24, 8 mg BID (N = 249)): 34 (14.9) n (%)
- SPRO Responses: 5 = Very Dissatisfied (Week 24, 8 mg BID (N = 249)): 54 (23.7) n (%)
- SPRO responders, treatment difference: Common Risk Difference (Mantel-Haenszel) (Week 24, 8 mg BID compared to Placebo): 0.45
- percentage of subjects with a ≥2 point change from baseline in SPRO (Week 24, 8 mg BID): 52.6%
- proportion of SPRO responders (very satisfied or satisfied) (Week 24, 8 mg BID): 46.5%
- SPRO score, LS mean change from baseline (Week 24, 12 mg BID): −1.8
- SPRO Responders: No (Week 24, 12 mg BID (N = 127)): 58 (48.3) n (%)
- SPRO Responders: Yes ('Very satisfied' or 'Satisfied') (Week 24, 12 mg BID (N = 127)): 62 (51.7) n (%)
- SPRO Responses: 1 = Very Satisfied (Week 24, 12 mg BID (N = 127)): 24 (20.0) n (%)
- SPRO Responses: 2 = Satisfied (Week 24, 12 mg BID (N = 127)): 38 (31.7) n (%)
- SPRO Responses: 3 = Neither Satisfied Nor Dissatisfied (Week 24, 12 mg BID (N = 127)): 23 (19.2) n (%)
- SPRO Responses: 4 = Dissatisfied (Week 24, 12 mg BID (N = 127)): 18 (15.0) n (%)
- SPRO Responses: 5 = Very Dissatisfied (Week 24, 12 mg BID (N = 127)): 17 (14.2) n (%)
- SPRO responders, treatment difference: Common Risk Difference (Mantel-Haenszel) (Week 24, 12 mg BID compared to Placebo): 0.49
- percentage of subjects with a ≥2 point change from baseline in SPRO (Week 24, 12 mg BID): 61.7%
- proportion of SPRO responders (very satisfied or satisfied) (Week 24, 12 mg BID): 51.7
- percentage of SPRO responders (week 12, 8 mg BID): 43.2%
- percentage of subjects with a ≥2 point change from baseline in SPRO (week 12, 8 mg BID): 50.4%
- percentage of SPRO responders (week 12, 12 mg BID): 41.0%
- percentage of subjects with a ≥2 point change from baseline in SPRO (week 12, 12 mg BID): 59.0%
- percentage of SPRO responders (week 16, 8 mg BID): 41.0%
- percentage of subjects with a ≥2 point change from baseline in SPRO (week 16, 8 mg BID): 52.6%
- percentage of SPRO responders (week 16, 12 mg BID): 45.1%
- percentage of subjects with a ≥2 point change from baseline in SPRO (week 16, 12 mg BID): 57.4%
- percentage of SPRO responders (week 20, 8 mg BID): 40.1%
- percentage of subjects with a ≥2 point change from baseline in SPRO (week 20, 8 mg BID): 50.4%
- percentage of SPRO responders (week 20, 12 mg BID): 52.5%
- percentage of subjects with a ≥2 point change from baseline in SPRO (week 20, 12 mg BID): 63.6%
